Assays:
Assay in all cases: Kinase profiling
Format in all cases: biochemical
ACVR2B = target: T1, ACVR2B (Homo sapiens, UniProt Q13705)
T1 construct: purchased ProQinase (Freiburg, Germany)
Method: (§1) The analysis was performed by ProQinase (Freiburg, Germany).

BRAF = target: T2, BRAF (Homo sapiens, UniProt P15056)
T2 construct: purchased ProQinase (Freiburg, Germany)
Method: as §1

CAMK4 = target: T3, CAMK4 (Homo sapiens, UniProt Q16566)
T3 construct: purchased ProQinase (Freiburg, Germany)
T3 sequence (Q16566 1-473): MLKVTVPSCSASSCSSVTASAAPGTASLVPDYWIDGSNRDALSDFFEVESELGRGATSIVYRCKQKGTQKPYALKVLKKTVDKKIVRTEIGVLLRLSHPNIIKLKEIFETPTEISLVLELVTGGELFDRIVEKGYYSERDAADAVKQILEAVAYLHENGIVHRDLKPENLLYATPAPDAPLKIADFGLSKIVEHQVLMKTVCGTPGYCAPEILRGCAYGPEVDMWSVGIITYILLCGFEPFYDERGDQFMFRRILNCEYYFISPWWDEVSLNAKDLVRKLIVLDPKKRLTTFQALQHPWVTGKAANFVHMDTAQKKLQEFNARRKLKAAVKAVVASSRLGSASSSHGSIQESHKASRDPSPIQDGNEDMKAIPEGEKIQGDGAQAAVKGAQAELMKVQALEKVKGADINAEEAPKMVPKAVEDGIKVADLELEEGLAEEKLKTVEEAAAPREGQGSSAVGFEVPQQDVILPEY
Method: as §1

CDK5/p25NCK = target: T4, CDK5/p25NCK (Homo sapiens, UniProt Q00535)
T4 construct: purchased ProQinase (Freiburg, Germany)
T4 sequence (Q00535 whole entry): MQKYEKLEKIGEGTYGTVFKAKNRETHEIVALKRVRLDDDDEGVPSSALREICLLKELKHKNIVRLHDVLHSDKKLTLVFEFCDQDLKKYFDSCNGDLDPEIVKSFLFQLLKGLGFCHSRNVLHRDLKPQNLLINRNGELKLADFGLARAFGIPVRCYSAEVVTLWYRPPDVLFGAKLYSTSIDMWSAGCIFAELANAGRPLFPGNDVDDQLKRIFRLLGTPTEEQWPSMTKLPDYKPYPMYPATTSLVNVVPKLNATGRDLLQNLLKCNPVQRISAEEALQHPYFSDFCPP
T4 sequence (Q15078 99-307 partner limits assumed): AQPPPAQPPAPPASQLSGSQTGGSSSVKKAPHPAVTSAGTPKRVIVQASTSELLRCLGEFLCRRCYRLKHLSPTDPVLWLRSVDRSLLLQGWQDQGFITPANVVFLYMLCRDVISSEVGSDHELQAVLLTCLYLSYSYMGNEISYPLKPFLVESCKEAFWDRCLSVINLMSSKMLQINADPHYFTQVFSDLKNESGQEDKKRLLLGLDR
Method: as §1

CHK1 = target: T5, CHK1 (Homo sapiens, UniProt O14757)
T5 construct: purchased ProQinase (Freiburg, Germany)
T5 sequence (O14757 1-476): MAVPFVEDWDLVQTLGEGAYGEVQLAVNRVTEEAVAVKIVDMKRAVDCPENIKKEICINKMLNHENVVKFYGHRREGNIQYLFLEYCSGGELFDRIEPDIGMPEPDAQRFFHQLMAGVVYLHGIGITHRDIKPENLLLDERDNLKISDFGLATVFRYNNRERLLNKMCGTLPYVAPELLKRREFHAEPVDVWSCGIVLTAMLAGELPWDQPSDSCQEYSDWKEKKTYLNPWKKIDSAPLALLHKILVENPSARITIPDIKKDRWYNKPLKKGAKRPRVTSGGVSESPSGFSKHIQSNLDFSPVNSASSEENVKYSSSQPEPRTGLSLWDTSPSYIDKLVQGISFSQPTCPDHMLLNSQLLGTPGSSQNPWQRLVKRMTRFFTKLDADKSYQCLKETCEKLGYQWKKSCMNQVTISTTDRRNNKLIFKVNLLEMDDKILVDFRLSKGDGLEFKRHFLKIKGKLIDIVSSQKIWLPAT
Method: as §1

HCK = target: T6, HCK (Homo sapiens, UniProt P08631)
T6 construct: purchased ProQinase (Freiburg, Germany)
T6 sequence (P08631 whole entry): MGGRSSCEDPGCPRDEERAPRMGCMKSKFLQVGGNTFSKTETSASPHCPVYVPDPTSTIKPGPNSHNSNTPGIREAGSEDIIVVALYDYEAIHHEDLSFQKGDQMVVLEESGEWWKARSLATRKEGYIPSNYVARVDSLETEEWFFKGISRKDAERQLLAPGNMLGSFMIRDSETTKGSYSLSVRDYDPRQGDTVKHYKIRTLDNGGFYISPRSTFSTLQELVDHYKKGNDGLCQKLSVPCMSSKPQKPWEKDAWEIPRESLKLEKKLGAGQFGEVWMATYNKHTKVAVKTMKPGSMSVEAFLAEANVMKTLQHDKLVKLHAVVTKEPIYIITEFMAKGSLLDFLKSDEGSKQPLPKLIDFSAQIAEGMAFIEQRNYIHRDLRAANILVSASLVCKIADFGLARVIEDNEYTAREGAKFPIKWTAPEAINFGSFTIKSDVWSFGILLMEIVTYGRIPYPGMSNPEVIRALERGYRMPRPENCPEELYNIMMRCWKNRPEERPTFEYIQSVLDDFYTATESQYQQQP
Method: as §1

PKCepsilon = target: T7, PKCepsilon (Homo sapiens, UniProt Q02156)
T7 construct: purchased ProQinase (Freiburg, Germany)
T7 sequence (Q02156 1-737): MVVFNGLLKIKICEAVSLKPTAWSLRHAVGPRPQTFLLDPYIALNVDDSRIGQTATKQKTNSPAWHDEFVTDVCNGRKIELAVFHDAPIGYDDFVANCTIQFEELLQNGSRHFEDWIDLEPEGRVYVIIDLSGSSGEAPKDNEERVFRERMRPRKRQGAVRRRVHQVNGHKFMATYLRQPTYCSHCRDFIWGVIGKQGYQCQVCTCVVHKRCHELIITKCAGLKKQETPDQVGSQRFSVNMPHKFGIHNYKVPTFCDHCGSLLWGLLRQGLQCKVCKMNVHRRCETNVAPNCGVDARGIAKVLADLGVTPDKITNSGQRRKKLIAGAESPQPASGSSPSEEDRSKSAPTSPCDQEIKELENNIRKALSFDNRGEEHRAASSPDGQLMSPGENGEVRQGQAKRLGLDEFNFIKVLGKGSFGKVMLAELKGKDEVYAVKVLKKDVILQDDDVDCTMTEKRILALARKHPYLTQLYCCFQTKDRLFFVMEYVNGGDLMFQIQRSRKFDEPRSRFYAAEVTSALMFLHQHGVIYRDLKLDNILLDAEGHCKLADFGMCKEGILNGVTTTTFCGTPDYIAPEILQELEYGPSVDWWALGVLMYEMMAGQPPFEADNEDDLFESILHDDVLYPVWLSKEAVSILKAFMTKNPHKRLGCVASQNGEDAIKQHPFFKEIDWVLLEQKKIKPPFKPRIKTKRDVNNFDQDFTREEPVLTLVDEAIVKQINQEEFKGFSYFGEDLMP
Method: as §1

STK39 = target: T8, STK39 (Homo sapiens, UniProt Q9UEW8)
T8 construct: purchased ProQinase (Freiburg, Germany)
Method: as §1

T1 sequence (Q13705 19-512): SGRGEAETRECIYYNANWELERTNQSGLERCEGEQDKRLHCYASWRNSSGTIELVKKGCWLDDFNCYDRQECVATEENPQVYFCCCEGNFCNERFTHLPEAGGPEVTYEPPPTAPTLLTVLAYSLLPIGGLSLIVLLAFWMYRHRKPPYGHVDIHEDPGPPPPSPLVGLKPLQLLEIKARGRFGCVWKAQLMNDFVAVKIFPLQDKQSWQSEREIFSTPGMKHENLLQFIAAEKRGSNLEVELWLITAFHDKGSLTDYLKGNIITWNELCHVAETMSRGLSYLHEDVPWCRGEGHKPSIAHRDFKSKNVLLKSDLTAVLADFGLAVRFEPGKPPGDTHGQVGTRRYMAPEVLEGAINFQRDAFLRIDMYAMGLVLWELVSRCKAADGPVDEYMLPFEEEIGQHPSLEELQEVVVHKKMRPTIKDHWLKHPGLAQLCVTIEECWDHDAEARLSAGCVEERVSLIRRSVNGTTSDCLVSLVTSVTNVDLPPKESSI
T2 sequence (P15056 whole entry): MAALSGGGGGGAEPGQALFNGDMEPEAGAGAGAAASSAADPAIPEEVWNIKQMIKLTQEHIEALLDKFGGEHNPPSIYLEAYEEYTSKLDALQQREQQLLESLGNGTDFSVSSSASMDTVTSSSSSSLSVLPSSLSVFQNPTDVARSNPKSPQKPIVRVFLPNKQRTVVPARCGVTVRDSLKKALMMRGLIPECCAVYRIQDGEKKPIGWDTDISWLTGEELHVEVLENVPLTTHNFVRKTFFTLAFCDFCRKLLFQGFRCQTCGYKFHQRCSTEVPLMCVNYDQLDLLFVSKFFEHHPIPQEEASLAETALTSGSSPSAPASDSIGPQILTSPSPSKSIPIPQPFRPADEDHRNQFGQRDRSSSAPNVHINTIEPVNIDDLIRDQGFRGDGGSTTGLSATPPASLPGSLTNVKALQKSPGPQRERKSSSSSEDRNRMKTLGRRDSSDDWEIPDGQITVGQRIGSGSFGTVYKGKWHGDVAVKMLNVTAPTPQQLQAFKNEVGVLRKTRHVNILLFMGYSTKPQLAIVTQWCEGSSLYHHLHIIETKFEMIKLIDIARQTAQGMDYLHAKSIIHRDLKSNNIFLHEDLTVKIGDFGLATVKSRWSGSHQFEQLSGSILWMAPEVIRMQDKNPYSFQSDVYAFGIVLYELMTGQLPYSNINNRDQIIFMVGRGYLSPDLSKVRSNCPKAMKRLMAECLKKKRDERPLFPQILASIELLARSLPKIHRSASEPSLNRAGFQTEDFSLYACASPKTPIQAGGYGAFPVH

Row | Compound | Residual activity (ACVR2B; 1.0E-05 M) | Residual activity (ACVR2B; 1.0E-06 M) | inhibition at 10 µM (BRAF) [%] | Residual activity (BRAF; 1.0E-05 M) | Residual activity (BRAF; 1.0E-06 M) | Residual activity (CAMK4; 1.0E-05 M) | Residual activity (CAMK4; 1.0E-06 M) | Residual activity (CDK5/p25NCK; 1.0E-05 M) | Residual activity (CDK5/p25NCK; 1.0E-06 M) | Residual activity (CHK1; 1.0E-05 M) | Residual activity (CHK1; 1.0E-06 M) | Residual activity (HCK; 1.0E-05 M) | Residual activity (HCK; 1.0E-06 M) | Residual activity (PKCepsilon; 1.0E-05 M) | Residual activity (PKCepsilon; 1.0E-06 M) | Residual activity (STK39; 1.0E-05 M) | Residual activity (STK39; 1.0E-06 M)
1 | O=C(Cc1ccccc1)Nc1ccc(F)c(Nc2ccc3c(c2)CCCCC3=O)c1 [Compound 100] | 169 % of control | 95 % of control | ≥ 50 | 25 % of control | 58 % of control | 97 % of control | 102 % of control | 90 % of control | 99 % of control | 91 % of control | 91 % of control | 95 % of control | 107 % of control | 107 % of control | 107 % of control | 106 % of control | 108 % of control
2 | O=C(Nc1ccc(F)c(Nc2ccc3c(c2)CCCCC3=O)c1)c1cccc(F)c1 [Compound 109] | 167 % of control | 104 % of control | ≥ 50 | 39 % of control | 67 % of control | 89 % of control | 97 % of control | 95 % of control | 95 % of control | 90 % of control | 88 % of control | 76 % of control | 99 % of control | 103 % of control | 104 % of control | 100 % of control | 90 % of control
